Reference: PMC7074965, “Discovery of Two Brominated Oxindole Alkaloids as Staphylococcal DNA Gyrase and Pyruvate Kinase Inhibitors via Inverse Virtual Screening” (Microorganisms, 2020)
Values after ≈ are worked out from the molar mass of the structure shown. Where two headings read alike, the source gives them in different places.

Legend:
[1] = system: MRSA ATCC33591; experiment: MIC determination, twofold serial dilution; type: cell-based; settings: Staphylococcus aureus, read-out: MIC (MRSA)
Method: (§1) All the bacterial strains were maintained at −80 °C in 15% glycerol nutrient broth (Oxoid, Milan, Italy).
(§2) The twofold serial dilution approach was applied to determine the MICs of each compound. Each tested compound was dissolved in DMSO (Sigma, Milan, Italy) to prepare the test solutions. Many colonies of each tested bacterial strain were inoculated in 10 mL of sterilized Mueller–Hinton broth (MHB) (Oxoid) and incubated at 37 °C for 18–24 h. […] All data are reported as the mean of three independent experiments.

[2] = system: Bacillus subtilis ATCC5230; experiment: MIC determination, twofold serial dilution; type: cell-based; settings: read-out: MIC (B. subtilis)
Method: as §1, §2

[3] = system: Pseudomonas aeruginosa ATCC9027; experiment: MIC determination, twofold serial dilution; type: cell-based; settings: read-out: MIC (P. aeruginosa)
Method: as §1, §2

[4] = system: Escherichia coli ATCC 259228; experiment: MIC determination, twofold serial dilution; type: cell-based; settings: read-out: MIC (E. coli)
Method: as §1, §2

[5] = system: Pim-1 kinase; set-up: method as in PMID 30061488, PMID 30525020, PMID 31395834; settings: previously reported; cited from earlier work
[6] = 24 h incubation, mean of three experiments
[7] = Bacillus subtilis, ATCC5230, 24 h incubation, mean of three experiments
[8] = Pseudomonas aeruginosa, ATCC9027, 24 h incubation, mean of three experiments
[9] = Escherichia coli, ATCC259228, 24 h incubation, mean of three experiments
[10] = Bacillus subtilis, ATCC5230, 24 h
[11] = Pseudomonas aeruginosa, ATCC9027, 24 h
[12] = Escherichia coli, ATCC259228, 24 h

Molecule | MIC [1, 6] | MIC [2, 7] | MIC [3, 8] | MIC [4, 9] | MIC [2, 6] | MIC [3, 6] | MIC [4, 6] | further results
O=C1Nc2ccccc2C1(c1c[nH]c2ccccc12)c1c[nH]c2ccccc12 [Compound 3, Trisindoline] | 32 µM (≈ 11.6 µg/mL) | 16 µM (≈ 5.81 µg/mL) | > 256 µM | > 256 µM |  |  |  | 
CC(c1c[nH]c2ccccc12)c1c[nH]c2ccccc12 [Compound 4, Vibrindole] | 64 µM (≈ 16.7 µg/mL) | 64 µM (≈ 16.7 µg/mL) | > 256 µM | 128 µM (≈ 33.3 µg/mL) |  |  |  | 
CC(=O)C[C@]1(O)C(=O)Nc2cc(Br)ccc21 [Compound 5, Convolutamidine F] | 128 µM (≈ 36.4 µg/mL) | 128 µM (≈ 36.4 µg/mL) | > 256 µM | > 256 µM |  |  |  | Pim-1 kinase inhibition [5]: potent cytotoxic Pim-1 kinase inhibitors
O=C1Nc2cc(Br)ccc2[C@@]1(O)c1c[nH]c2ccccc12 [Compound 6, (S) 6-bromo-3-hydroxy-3-(1H-indol-3-yl) indolin-2-one] |  |  |  |  |  |  |  | MIC ([1]; 24 h): > 256 µM; MIC [2, 10]: 128 µM (≈ 43.9 µg/mL); MIC [3, 11]: > 256 µM; MIC [4, 12]: > 256 µM
COc1ccc(/C=C/C(=O)/C=C2/C(=O)Nc3cc(Br)ccc32)cc1 [Compound 7, Saccharomon osp orine A] | > 256 µM | > 256 µM | > 256 µM | > 256 µM |  |  |  | Pim-1 kinase inhibition [5]: potent cytotoxic Pim-1 kinase inhibitors
O=C1Nc2ccccc2C1=O [Compound 8, Isatine] |  |  |  |  | > 256 µM | > 256 µM | > 256 µM | 
O=C1Nc2ccc(Br)cc2C1=O [Compound 9, 5-Bromoisatine] | 128 µM (≈ 28.9 µg/mL) | 128 µM (≈ 28.9 µg/mL) | > 256 µM | > 256 µM |  |  |  | 
O=C1Nc2cc(Br)ccc2C1=O [Compound 10, 6-Bromoisatine] | 128 µM (≈ 28.9 µg/mL) | 128 µM (≈ 28.9 µg/mL) | > 256 µM | 128 µM (≈ 28.9 µg/mL) |  |  |  | 
CC(=O)/C=C1/C(=O)Nc2ccc(Br)cc21 [Compound 11, (E)-5-bromo-3-(2-oxopropylidene)indolin-2-one] |  |  |  |  | > 256 µM | > 256 µM | > 256 µM | 
Cc1c[nH]c2ccccc12 [Compound 12, Skatole] |  |  |  |  | > 256 µM | > 256 µM | > 256 µM | 
O=Cc1c[nH]c2ccccc12 [Compound 13, Indole-3-carbaldehyde] | > 256 µM | > 256 µM | > 256 µM | > 256 µM |  |  |  | 
OCCc1c[nH]c2ccccc12 [Compound 14, Tryptophol] | > 256 µM | > 256 µM | > 256 µM | > 256 µM |  |  |  | 
O=C(O)C(=O)Cc1c[nH]c2ccccc12 [Compound 15, Indole-3-pyruvic acid] | > 256 µM | > 256 µM | > 256 µM | > 256 µM |  |  |  | 
COc1ccc(C(=O)O)cc1 [Compound 16, p-Anisic acid] | > 256 µM | > 256 µM | > 256 µM | > 256 µM |  |  |  | 
COC(=O)c1ccc(OC)cc1 [Compound 17, p-Anisic acid methyl ester] |  |  |  |  | > 256 µM | > 256 µM | > 256 µM | 
COc1cc(C(=O)O)cc(OC)c1O [Compound 18, Syringic acid] | > 256 µM | > 256 µM | > 256 µM | > 256 µM |  |  |  | 
Nc1ccccc1C(=O)O [Compound 19, Anthranilic acid] |  |  |  |  |  |  |  | MIC ([1]; 24 h): > 256 µM; MIC [2, 10]: > 256 µM; MIC [3, 11]: > 256 µM; MIC [4, 12]: > 256 µM

Molecule | MIC [1, 6] | MIC [2, 7] | MIC [3, 8] | MIC [4, 9] | MIC [2, 6] | MIC [3, 6] | MIC [4, 6] | further results
O=Cc1ccc(O)cc1 [Compound 20, p-Hydroxy benzaldehyde] |  |  |  |  | > 256 µM | > 256 µM | > 256 µM | 
O=Cc1cc(O)ccc1O [Compound 21, Gentisaldehyde] |  |  |  |  | > 256 µM | > 256 µM | > 256 µM | 
COc1ccc(C(=O)OCc2ccccc2)cc1 [Compound 22, Benzyl anisate] |  |  |  |  | > 256 µM | > 256 µM | > 256 µM | 
COc1cc(C(C)=O)cc(OC)c1O [Compound 23, Acetosyringone] | > 256 µM | > 256 µM | > 256 µM | > 256 µM |  |  |  | 
COc1cc(/C=C/C(=O)O)cc(OC)c1O [Compound 24, Sinapic acid] |  |  |  |  | > 256 µM | > 256 µM | > 256 µM | 
O=C(O)Cc1ccccc1 [Compound 25, Phenyl acetic acid] |  |  |  |  |  |  |  | MIC ([1]; 24 h): > 256 µM; MIC [2, 10]: > 256 µM; MIC [3, 11]: > 256 µM; MIC [4, 12]: > 256 µM
O=C(O)c1ccc2ccccc2c1O [Compound 26, 1-Hydroxy-2-naphthoic acid] | > 256 µM | > 256 µM | > 256 µM | > 256 µM |  |  |  | 
O=C(O)c1cc(O)c2ccccc2c1O [Compound 27, 1,4 Dihydroxy-2-naphthoic acid] |  |  |  |  | > 256 µM | > 256 µM | > 256 µM | 
CC(C)CCC[C@@H](C)[C@H]1CC[C@H]2[C@@H]3CCC4=CC(=O)CC[C@]4(C)[C@H]3CC[C@]12C [Compound 29, Cholestenone] |  |  |  |  | > 256 µM | > 256 µM | > 256 µM | 
CC(C)CCC[C@@H](C)[C@H]1CC[C@H]2[C@@H]3CC[C@H]4CC(=O)CC[C@]4(C)[C@H]3CC[C@]12C [Compound 30, 5α-Cholestanone] |  |  |  |  | > 256 µM | > 256 µM | > 256 µM | 
CC[C@H](/C=C/[C@@H](C)[C@H]1CC[C@H]2[C@@H]3CCC4=CC(=O)CC[C@]4(C)[C@H]3CC[C@]12C)C(C)C [Compound 31, Stigmasterone] |  |  |  |  | > 256 µM | > 256 µM | > 256 µM | 
CC[C@H](C=C[C@@H](C)[C@H]1CC[C@H]2[C@@H]3CC(=O)C4=CC(=O)CC[C@]4(C)[C@H]3CC[C@]12C)C(C)C [Compound 32, Stigmasta-4,22-dien-3,6-dione] |  |  |  |  | > 256 µM | > 256 µM | > 256 µM | 
CC(C)[C@@H](C)/C=C/[C@@H](C)[C@H]1CC[C@@H]2[C@]1(C)CC[C@H]1[C@]23C=C[C@]2(C[C@@H](O)CC[C@]12C)OO3 [Compound 33, Ergosterol peroxide] | > 256 µM | > 256 µM | > 256 µM | > 256 µM |  |  |  | 
CC1=CCC2C(CC[C@@]2(C)O)C(C)(C)C1CC[C@@H]1[C@@]2(C)CCC(=O)C(C)(C)O[C@@H]2CC[C@]1(C)O (stereo partly drawn) [Compound 34, Sipholenone A] | > 256 µM | > 256 µM | > 256 µM | > 256 µM |  |  |  | 
CC1=CCC2C(CC[C@@]2(C)O)C(C)(C)C1CC[C@@H]1[C@@]2(C)CC[C@@H](O)C(C)(C)O[C@@H]2CC[C@]1(C)O (stereo partly drawn) [Compound 35, Sipholenol A] | > 256 µM | > 256 µM | > 256 µM | > 256 µM |  |  |  | 
CCCCCCCCCCC/C=C\CCCCC(=O)O [Compound 36, Petroselenic acid] |  |  |  |  | > 256 µM | > 256 µM | > 256 µM | 
Callysterol [Compound 28] |  |  |  |  | > 256 µM | > 256 µM | > 256 µM | 
